{"source": "patent US20250368958A1", "about": "“CAR-EXPRESSING PLURIPOTENT STEM CELL-DERIVED NEUTROPHILS LOADED WITH DRUG NANOPARTICLES AND USES THEREOF” (Purdue Research Foundation, priority 2022, published 2025)", "key": {"[1]": {"system": "U87MG tumor spheroids", "test": "3D tumor spheroid model", "type": "cell-based, human", "conditions": "drug delivered by CAR-neutrophils@R—SiO2 NPs", "protocol": "A three-dimensional (3D) tumor spheroid model was then employed to evaluate the tumor-penetration ability of R—SiO2-TPZ NP-loaded CAR-neutrophils (FIG. 6G). 3D tumor spheroids were generated by the hanging-drop method. Briefly, U87MG cells were suspended in minimum essential medium (MEM) medium with 10% FBS and 0.3% methylcellulose at 2×10^6 cells/mL and deposited onto an inverted lid of 96-well plate as an individual drop using a 20 μL pipettor. The cover lid was then placed back onto the PBS-filled bottom chamber, and the whole plate was incubated at 37° C. and 5% CO2. The hanging drops were monitored daily until cell aggregates were formed in 5-7 days. Each cell aggregate was transferred to a single well of a 24-well plate for subsequent experiments.\nTo assess the tumor penetration capability of CLTX-CAR neutrophils, 2×10^5 neutrophils/well were added to the wells of 24-well plate and incubated with tumor spheroids. After co-incubation for 24 hours, tumor spheroids were fixed and stained for CD45 and DAPI. For cytotoxicity analysis, both live/dead cell staining and the CytoTox-Glo™ Cytotoxicity Assay kit (Promega Corporation, Madison, WI) were employed. The CytoTox-Glo™ Cytotoxicity Assay was quantified by the SpectraMax iD3 microplate reader (Molecular Devices, Sunnyvale, CA)."}, "[2]": {"system": "tumor-neutrophil co-culture", "test": "Tumor lysis with phagocytosis or ROS inhibitor", "type": "cell-based", "protocol": "FIG. 16A is a volcano map of bulk RNA-Seq analysis of U87MG cells under indicated treatments. FIGS. 16B and 16C show tumor lysis measurements of the indicated groups treated with 5 μM cytochalasin D (CytoD) or 5 mM N-acetylcysteine (NAC), respectively.\nRNA sequencing (RNA-seq) analysis on tumor cells was performed to elucidate potential molecular mechanism underlying enhanced anti-tumor cytolysis of neutrophils by CAR expression and R—SiO2-TPZ NP. […] To further understand enhanced anti-tumor activities of R—SiO2-TPZ-loaded CAR-neutrophils, a phagocytosis inhibitor cytochalasin D and a reactive oxygen species (ROS) inhibitor N-acetyl-cysteine (NAC) were applied to the tumor-neutrophil co-culture."}}, "data": [{"smiles": "Nc1nc2cc(CC[C@H]3C[C@@H](n4ccc5c(N)ncnc54)[C@H](O)[C@@H]3O)ccc2cc1Br", "note": "[JNJ64619187]", "values": [{"measurement": "killing of GBM cells in 3D tumor models", "setting": "[1]", "result": "efficiently kill GBM cells"}]}, {"smiles": "CC(=O)N[C@@H](CS)C(=O)O", "note": "[NAC, N-acetyl-cysteine]", "values": [{"measurement": "cytolysis of tumor cells by CAR-neutrophils in presence of inhibitor", "setting": "[2]; 5 mM", "result": "significantly reduced"}]}, {"smiles": "C=C1[C@@H](C)[C@H]2[C@H](Cc3ccccc3)NC(=O)[C@]23[C@H](OC(C)=O)/C=C/[C@@](C)(O)C(=O)[C@@H](C)C/C=C/[C@H]3[C@@H]1O", "note": "[cytochalasin D]", "values": [{"measurement": "cytolysis of tumor cells by CAR-neutrophils in presence of inhibitor", "setting": "[2]; 5 μM", "result": "significantly reduced"}]}]}
